In article PMC12727973, “Off-target autophagy disruption associated with a novel liver toxicity in dogs for a highly basic heterobifunctional protein degrader” (Frontiers in Pharmacology, 2025):

What was measured:
[1] = system: primary human cholangiocytes; test: Co-treatment with V-ATPase inhibitor bafilomycin in cholangiocytes
LC3B = LC3B lipidation immunoblot in primary cholangiocytes; type: cell-based, human; conditions: 3 h, 300 μM
Protocol: Cells were treated with compounds at concentrations indicated for 3 h (immunoblotting), 18 h (proteomics), or 48 h (compound uptake) using DMSO vehicle content normalized across wells, up to 0.2%. 48 h was selected for compound uptake experiments to match the cell viability assay conditions; 18 h was selected for the initial assessment of proteome-wide changes leading to and accompanying cytotoxicity; 3 h to observe pathway changes with minimal confounding effects of cytotoxicity. […] Following compound incubation, cells were washed twice with phosphate buffer saline (PBS) and, except for compound uptake studies, lifted off plates with Accumax (Sigma-Aldrich A7089). Cells were pelleted at 700 × g for 5 min, washed with PBS, and pellets were stored at −80 °C for later sample preparation.
Lysate corresponding to 20 µg protein was combined with LDS Buffer (1X final, Thermo #NP0007) and 1 M dithiothreitol stock (100 mM final), heat denatured at 95 °C for 10 min, and loaded into the wells of a NuPage Bis-Tris Mini Protein Gel (Thermo #NP0321). Proteins were separated at 200 V for 30–40 min using a XCell SureLock Mini-Cell (Thermo #EI0001) and MES SDS Running Buffer (Thermo #NP0002).
Proteins were next transferred to a PVDF membrane (Thermo #IB24002) with an iBlot 2 Gel Transfer Device (Invitrogen #IB21001) using the standard 7 min method. […]

SMILES: CO/C1=C\C(C)=C\[C@@H](C)[C@@H](O)[C@@H](C)C/C(C)=C/C=C/[C@H](OC)[C@@H]([C@@H](C)[C@@H](O)[C@H](C)[C@@]2(O)C[C@@H](O)[C@H](C)[C@@H](C(C)C)O2)OC1=O [BafA1, Bafilomycin A1]
- Cytotoxicity alone ([1]; BafA1 alone, longer timepoints): cytotoxic at longer timepoints
- Effect on Compound X-induced cytotoxicity ([1]; co-treatment with Compound X, <24 h): fully rescued compound-induced cytotoxicity
- Effect on LC3B lipidation by Compound X ([1]; co-treatment, 100 nM or 2.5 nM BafA1, 3 h): reduced the LC3B lipidation by Compound X

SMILES: CCN(CC)CCCC(C)Nc1ccnc2cc(Cl)ccc12 (stereo not shown) [CQ, chloroquine diphosphate]
- LC3B-II/LC3B-I (LC3B): 2.1
